Assay results from patent publication US20040176430A1, “Propargyl-trifluoromethoxy-amino-benzothiazole derivatives” (priority 2002, published 2004).
“And” between values parts separate entries of the source, which are not always exact repeats. Identical values can stand only once.

Key:
EAE = assay: Experimental Allergic Encephalomyelitis (EAE) model of MS; format: in vivo, mice; conditions: 10 mg/kg twice daily, oral gavage, 30 days
Protocol: EAE is an accepted animal model of autoimmune disorder (Tisch et al. Proc. Natl. Acad. Sci. USA (1994) 91:437-438). EAE was induced by injecting the encephalitogenic agent consisting of MSCH and commercial CFA containing Mycobacterium tuberculosis H37Ra to the foot-pads of the animals and pertussis toxin intravenously.
GA-DS in MSCH emulsion was injected in the four footpads. The other compounds were administered to the respective groups by oral gavage twice daily for 30 consecutive days starting from the day of induction until the termination of the study.
Scoring of EAE clinical signs was initiated from Day 10 post-EAE induction and was continued daily for 20 days. The clinical signs were recorded on observation cards according to a grading system described in the table below.
The number of dead or moribund animals in each group were summed.
The mortality rate was calculated as: [formula]
The mean maximal score (MMS) of each group was calculated as Σ maximal score of each mouse/number of mice in the group.
The percent inhibition was calculated as [formula]
The daily scores of each mouse in the test group was summed and the individual mean daily score (IMS) was calculated as IMS=daily score of mouse/observation period (days).
The mean group score (GMS) will be calculated as Σ IMS of each mouse/number of mice in the group.
The percent inhibition will be calculated as [formula]

PC-12 cells = assay: Effect on MPP+ treated PC-12 cells (LDH release); format: cell-based; conditions: MPP+ 1000 μM for 48 hours, tested compound 10 μM added 30 min prior to MPP+
Protocol: Pheochromocytoma PC-12 cells (at a density of 200,000 cells/well) were cultured for 10 days with 50 ng/ml NGF on 6-well culture dishes coated with 200 ug/ml rat tail type I collagen (BD Biosciences, Bedford, Mass., USA). On the day of the experiment the morphological differentiation of the cells was very advanced (typical network formation). In order to initiate the neurotoxic insult, cells were treated with 1000 μM of 1-methyl-4-phenylpyrdinium (MPP+) iodide salt from RBI chemicals (Natick, Mass., USA) for 48 hours in the absence or presence of tested compounds, added to the culture 30 min. prior to MPP+ administration. […] At the cellular level, neuronal cell death is induced by several mechanisms including pathological concentrations of intracellular calcium and free oxygen radicals. Therefore the positive control in this experiment was nimodipine at the concentration of 10 μM (RBI chemicals, Natick, Mass., USA)(a potent L-type calcium channel blocker). At the end of the experiment cell death was measured by assessing Lactate dehydrogenase (LDH) activity in the medium. High medium LDH indicated increased neuronal death that promoted leakage of this cytoplasmic enzyme into the medium.
Measuring lactate dehydrogenase activity in the medium was performed using a Sigma Diagnostics LD-L reagent. LDH activity was spectrophotometrically monitored at 340 nm by following the rate of conversion of oxidized nicotinamide adenine dinucleotide (NAD^+) to the reduced form of (NADH). Total LDH of each culture (extracellular+intracellular) was obtained by measuring LDH in the medium after freezing and thawing of the cultures. Basal LDH release was measured in untreated cultures (no MPP+). The neurotoxic effect was calculated according to the formula: (LDHs−LDHb)/LDHt×100. (s=sample; b=basal; t=total). Each compound was tested in sixplicate.

C57bl mice = assay: Effect on MPP+ toxicity in mice (striatal dopamine and DOPAC); format: in vivo; conditions: for DOPAC Pmol/mg tissue +/− S.E.M. / Dopamine Pmol/mg tissue +/− S.E.M.: 5 mg/kg oral in CMC
Protocol: MPP+ is a neuro-toxin and its injection into the brain causes depletion of striatal dopamine. Male C57bl mice, weighing 24-25 g were divided into 4 groups A-D receiving the following treatments:
A: Oral administration of 0.25% Carboxymethyl cellulose (CMC, 0.1 ml/mouse) and intracerebroventricular (ICV) injection of saline (10 μl/mouse).
B. Oral administration of 5 mg/kg 3a in 0.1 ml CMC, and ICV injection of 10 μl saline.
C. Oral administration of 0.1 ml CMC, and ICV injection of 30 μg MPP+ dissolved in 10 μl saline.
D. Oral administration of 5 mg/kg 3a in 0.1 ml CMC, and ICV injection of 30 μg MPP+ dissolved in 10 μl saline.
3a/CMC or CMC alone were orally administered 30 minutes before and 2 hours after ICV injection. The injection was done according to Haley T. J and McCormick W. G (Brit.J. Pharmacol., 1957, 12, 12) using ether anesthesia. Saline or MPP+/saline were injected during 1 second using a syringe that delivered the liquid at a rate of 0.6 ml/min. Two ICV injections were carried out with a 24 hour interval between them. Mice were killed six days after the last injection and striata taken for dopamine and DOPAC determinations. Each striatum was weighed, homogenized in 0.1M Perchloric acid (0.6 ml) containing 2 mM sodium metabisulfite and 0.3 mM EDTA. After centrifugation at 13000 g for 7 minutes, the supernatant was taken for catecholamine determination. Aliquotes of 20 μl were injected into the solvent stream of an HPLC apparatus equipped with a Microsorb column (packing 3 μm, 4.6 mm diameter, 12.5 cm long). The mobile phase was composed of NaH2PO4 100 mM, octan-1-sulphonic acid 1.5 mM, disodium ethylenediaminetetracetic acid 250 μM, methanol 2.3%, acetonitrile 4% in grade deionized water, at a flow rate of 1.0 ml min^−1. Dopamine and DOPAC were detected with an ESA Coulochem model 5014 detector (Bedford, Mass., USA). Column eluates were initially oxidized by an ESA guard cell (model 5020) at +300 mV, then reduced at +60 mV at detector 1 and measured at detector 2 at −250 mV.

[1] = with ICV MPP+ 30 μg (Group D), striatum six days after last injection
[2] = without MPP+, ICV saline (Group B), striatum

For `C#CCN(C)c1nc2ccc(OC(F)(F)F)cc2s1` [Compound 3, Methyl-prop-2-ynyl-(6-trifluoromethoxy-benzothiazol-2-yl)-amine], the “GMS % Inhibition” value (EAE) was 87.5%, the “MMS % Inhibition” value (EAE) was 73.5% and the “Mortality % Inhibition” value (EAE) was 100%.

In the case of `C#CCN(C)c1nc2ccc(OC(F)(F)F)cc2s1.Cl` [Compound 3a, Methyl-prop-2-ynyl-(6-trifluoromethoxy-benzothiazol-2-yl)-amine.HCl salt], the “Percent of total LDH release (mean ± S.E.M.)” value (“Percent of total LDH release” below) (PC-12 cells) is reported as 10.9% and 10.9 ± 2.3%, the “Effect on MPP+ caused depletion in striatal concentrations of dopamine and DOPAC” value (C57bl mice; Group D, 5 mg/kg oral, MPP+ ICV) is reported as “reduced this depletion” and the “DOPAC Pmol/mg tissue +/− S.E.M.” value (C57bl mice; [1]) is reported as 3.7 +/− 0.2 Pmol/mg tissue. For the same molecule, the “Dopamine Pmol/mg tissue +/− S.E.M.” value (C57bl mice; [1]) was 66.0 +/− 3.4 Pmol/mg tissue, the “DOPAC Pmol/mg tissue +/− S.E.M.” value (C57bl mice; [2]) was 4.8 +/− 0.4 Pmol/mg tissue and the “Dopamine Pmol/mg tissue +/− S.E.M.” value (C57bl mice; [2]) was 78.2 +/− 4.3 Pmol/mg tissue.

Work on `C#CCNc1nc2ccc(OC(F)(F)F)cc2s1` [Compound 4, Prop-2-ynyl-(6-trifluoromethoxy-benzothiazol-2-yl)-amine] yielded a melting point of 138 to 140 °C.

For `C#CCNc1nc2ccc(OC(F)(F)F)cc2s1.Cl` [Compound 4a, Prop-2-ynyl-(6-trifluoromethoxy-benzothiazol-2-yl)-amine.HCl salt], the “Percent of total LDH release” value (PC-12 cells) was 25 ± 8.0%.

`C#CC(C)N(C)c1nc2ccc(OC(F)(F)F)cc2s1` (stereo not drawn) [Compound 6, Methyl-(1-methyl-prop-2-ynyl)-(6-trifluoromethoxy-benzothiazol-2-yl)-amine] gave a melting point of 42 to 43 °C.

In the case of `C#CCN(CC(=O)c1ccc(C)cc1)c1nc2ccc(OC(F)(F)F)cc2s1` [Compound 9, 2-[Prop-2-ynyl-(6-trifluoromethoxy-benzothiazole-2-yl)-amino]-1-p-tolyl-ethanone], the “GMS % Inhibition” value (EAE) is reported as 57.6%, the “MMS % Inhibition” value (EAE) is reported as 48.8% and the “Mortality % Inhibition” value (EAE) is reported as 50%.

With `C#CCN=c1sc2cc(OC(F)(F)F)ccc2n1C` [Compound 10, (3-Methyl-6-trifluoromethoxy-3H-benzothiazol-2-ylidene)-prop-2-ynyl-amine] the “GMS % Inhibition” value (EAE) was 37.5%, the “MMS % Inhibition” value (EAE) was 34.1% and the “Mortality % Inhibition” value (EAE) was 40%.

Molecule `C#CCN=c1sc2cc(OC(F)(F)F)ccc2n1CC(=O)c1ccc(C)cc1` [Compound 13, 2-(2-Prop-2-ynylimino-6-trifluoromethoxy-benzothiazole-3-yl)-1-p-tolyl-ethanone] has a melting point of 98 to 100 °C.

For `COCCOC(=O)C1=C(C)NC(C)=C(C(=O)OC(C)C)C1c1cccc([N+](=O)[O-])c1` (stereo not drawn) [Nimodipine, reference compound], the “Percent of total LDH release” value (PC-12 cells) was 3.6 ± 0.4% and the “Percent of total LDH release” value (PC-12 cells; listed as nimodipine) was 3.6%.
